Results on two molecules are retold here after publication PMC8551311, “Energy transfer between the nicotinamide nucleotide transhydrogenase and ATP synthase of Escherichia coli” (Scientific Reports, 2021).

In test [1] the target is T1, E. coli F1F0 ATP synthase (Escherichia coli, UniProt P0ABB0+P0ABB4). As to the kind of experiment: ATP synthesis in proteoliposomes, luciferin/luciferase luminescence. To be noted: 250 μM ADP, 40 mM KH2PO4, 5 mM MgCl2, 1.5 mM NAD+, 750 μM NADPH; 50 mM HEPES pH 7.5, 100 mM KCl; co-reconstituted with transhydrogenase. Format: biochemical. On the set-up: gene atpA; with ATP synthase gamma chain; ATP synthase subunit delta; ATP synthase epsilon chain; ATP synthase subunit a; ATP synthase subunit b; ATP synthase subunit c.

Test [2] concerns the target T1, E. coli F1F0 ATP synthase. On the set-up: gene atpA. To be noted: 250 μM ATP, 2-4 mM MgCl2; 50 mM HEPES pH 7.5, 100 mM KCl; co-reconstituted with transhydrogenase.

Take `Nc1ncnc2c1ncn2[C@@H]1O[C@H](COP(=O)(O)OP(=O)(O)O)[C@@H](O)[C@H]1O` [ADP]: the “ATP synthesis in proteoliposomes, luciferin/luciferase luminescence” value in test [1] is recorded as “upon addition of NADPH, continuous ATP synthesis is observed”.

Take `Nc1ncnc2c1ncn2[C@@H]1O[C@H](COP(=O)(O)OP(=O)(O)OP(=O)(O)O)[C@@H](O)[C@H]1O` [ATP]: the “ATP-driven proton pumping in proteoliposomes (ACMA quench); APADH absorbance 375” value in test [2] was “addition of ATP energized inward proton pumping by ATP synthase”.
